Reference: PubChem BioAssay AID248 (DTP/NCI, 2004)
Values joined by “and” are separate entries in the source; they are usually repeats but may differ in a detail not shown here. Identical values can stand only once. Toxic doses and inconclusive results are not listed.

Test system: L1210 leukemia ip in BDF1 mice, survival T/C
Assay: NCI In Vivo Anticancer Drug Screen. Data for tumor model L1210 Leukemia (intraperitoneal) in B6D2F1 (BDF1) mice
Conditions: higher = longer survival
How it was run: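 Antitumor effect is assessed in tumor-bearing animals. Survival in the compound arm is compared with a vehicle-dosed control arm and expressed as their quotient.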

[1] = endpoint: mean survival time, dose: 100.0 mg/kg/injection, schedule: Q01DX009 (ip), vehicle: Klucel (hydroxypropylcellulose) (HPC)
[2] = endpoint: mean survival time, dose: 200.0 mg/kg/injection, schedule: Q01DX009 (ip), vehicle: Klucel (hydroxypropylcellulose) (HPC)
[3] = endpoint: mean survival time, dose: 400.0 mg/kg/injection, schedule: Q01DX009 (ip), vehicle: Klucel (hydroxypropylcellulose) (HPC)
[4] = endpoint: mean survival time, dose: 100.0 mg/kg/injection, schedule: Q01DX009 (ip), vehicle: saline
[5] = endpoint: mean survival time, dose: 100.0 mg/kg/injection, schedule: Q01DX001 (ip), vehicle: Klucel (hydroxypropylcellulose) (HPC)
[6] = endpoint: mean survival time, dose: 100.0 mg/kg/injection, schedule: Q01DX001 (ip), vehicle: saline
[7] = endpoint: mean survival time, dose: 200.0 mg/kg/injection, schedule: Q01DX001 (ip), vehicle: saline
[8] = endpoint: mean survival time, dose: 400.0 mg/kg/injection, schedule: Q01DX001 (ip), vehicle: saline
[9] = endpoint: mean survival time, dose: 100.0 mg/kg/injection, schedule: Q04DX003 (ip), vehicle: saline with Tween-80
[10] = endpoint: mean survival time, dose: 200.0 mg/kg/injection, schedule: Q04DX003 (ip), vehicle: saline with Tween-80
[11] = endpoint: mean survival time, dose: 100.0 mg/kg/injection, schedule: Q04DX003 (ip), vehicle: Klucel (hydroxypropylcellulose) (HPC)
[12] = endpoint: mean survival time, dose: 200.0 mg/kg/injection, schedule: Q01DX001 (ip), vehicle: Klucel (hydroxypropylcellulose) (HPC)
[13] = endpoint: mean survival time, dose: 200.0 mg/kg/injection, schedule: Q04DX003 (ip), vehicle: Klucel (hydroxypropylcellulose) (HPC)
[14] = endpoint: mean survival time, dose: 400.0 mg/kg/injection, schedule: Q04DX003 (ip), vehicle: Klucel (hydroxypropylcellulose) (HPC)

F
T/C (endpoint: mean survival time, dose: 5.0 mg/kg/injection, schedule: Q01DX001 (ip), vehicle: saline): 89 % of control | T/C (endpoint: mean survival time, dose: 10.0 mg/kg/injection, schedule: Q01DX001 (ip), vehicle: saline): 97 % of control | T/C (endpoint: mean survival time, dose: 12.0 mg/kg/injection, schedule: Q01DX Z (ip), vehicle: saline): 98 % of control | T/C (endpoint: mean survival time, dose: 20.0 mg/kg/injection, schedule: Q01DX001 (ip), vehicle: saline): 103 % of control | T/C (endpoint: mean survival time, dose: 24.0 mg/kg/injection, schedule: Q01DX Z (ip), vehicle: saline): 101 % of control | T/C (endpoint: mean survival time, dose: 40.0 mg/kg/injection, schedule: Q01DX001 (ip), vehicle: saline): 97 % of control | T/C (endpoint: mean survival time, dose: 48.0 mg/kg/injection, schedule: Q01DX Z (ip), vehicle: saline): 110 % of control | T/C (endpoint: mean survival time, dose: 62.0 mg/kg/injection, schedule: Q01DX Z (ip), vehicle: saline): 92 % of control | T/C (endpoint: median survival time, dose: 5.0 mg/kg/injection, schedule: Q01DX009 (ip), vehicle: water): 93 % of control | T/C (endpoint: median survival time, dose: 10.0 mg/kg/injection, schedule: Q01DX009 (ip), vehicle: water): 100 % of control | T/C (endpoint: median survival time, dose: 20.0 mg/kg/injection, schedule: Q01DX009 (ip), vehicle: water): 106 % of control | T/C (endpoint: median survival time, dose: 40.0 mg/kg/injection, schedule: Q01DX009 (ip), vehicle: water): 106 % of control

CCOC(=O)c1ccc(NC(=O)Oc2cc(=O)oc3ccccc23)cc1
T/C [1]: 97 % of control | T/C [2]: 95 % of control | T/C [3]: 96 % of control

CCCN(C)/N=N/c1nc[nH]c1C(N)=O
T/C (endpoint: mean survival time, dose: 22.0 mg/kg/injection, schedule: Q01DX009 (ip), vehicle: carboxymethylcellulose (CMC)): 120 % of control | T/C (endpoint: mean survival time, dose: 37.5 mg/kg/injection, schedule: Q01DX Z (ip), vehicle: carboxymethylcellulose (CMC)): 151 % of control | T/C (endpoint: mean survival time, dose: 50.0 mg/kg/injection, schedule: Q01DX009 (ip), vehicle: carboxymethylcellulose (CMC)): 151 % of control | T/C (endpoint: mean survival time, dose: 50.0 mg/kg/injection, schedule: Q01DX Z (ip), vehicle: carboxymethylcellulose (CMC)): 158 % of control | T/C (endpoint: mean survival time, dose: 75.0 mg/kg/injection, schedule: Q01DX009 (ip), vehicle: carboxymethylcellulose (CMC)): 157 % of control | T/C (endpoint: mean survival time, dose: 88.0 mg/kg/injection, schedule: Q01DX001 (ip), vehicle: carboxymethylcellulose (CMC)): 106 % of control | T/C (endpoint: mean survival time, dose: 89.0 mg/kg/injection, schedule: Q01DX001 (ip), vehicle: carboxymethylcellulose (CMC)): 117 % of control | T/C (endpoint: mean survival time, dose: 100.0 mg/kg/injection, schedule: Q01DX009 (ip), vehicle: carboxymethylcellulose (CMC)): 152 % of control | T/C (endpoint: mean survival time, dose: 133.0 mg/kg/injection, schedule: Q01DX001 (ip), vehicle: carboxymethylcellulose (CMC)): 101 % of control and 124 % of control | T/C (endpoint: mean survival time, dose: 200.0 mg/kg/injection, schedule: Q01DX001 (ip), vehicle: carboxymethylcellulose (CMC)): 103 % of control | T/C (endpoint: mean survival time, dose: 300.0 mg/kg/injection, schedule: Q01DX001 (ip), vehicle: carboxymethylcellulose (CMC)): 104 % of control and 117 % of control | T/C (endpoint: median survival time, dose: 12.5 mg/kg/injection, schedule: Q01DX009 (ip), vehicle: steriod suspending solution): 116 % of control and 122 % of control | T/C (endpoint: median survival time, dose: 50.0 mg/kg/injection, schedule: Q01DX009 (ip), vehicle: steriod suspending solution): 166 % of control | T/C (endpoint: median survival time, dose: 100.0 mg/kg/injection, schedule: Q01DX009 (ip), vehicle: steriod suspending solution): 122 % of control

C=CC[N+](CC=C)(CC=C)C/C=C/C[N+](CC=C)(CC=C)CC=C
T/C (endpoint: mean survival time, dose: 6.25 mg/kg/injection, schedule: Q01DX009 (ip), vehicle: water): 95 % of control | T/C (endpoint: mean survival time, dose: 12.5 mg/kg/injection, schedule: Q01DX009 (ip), vehicle: water): 94 % of control and 91 % of control | T/C (endpoint: mean survival time, dose: 25.0 mg/kg/injection, schedule: Q01DX009 (ip), vehicle: water): 93 % of control and 101 % of control | T/C (endpoint: mean survival time, dose: 50.0 mg/kg/injection, schedule: Q01DX009 (ip), vehicle: water): 104 % of control

C=CCC#N
T/C (endpoint: mean survival time, dose: 25.0 mg/kg/injection, schedule: Q01DX009 (ip), vehicle: saline): 95 % of control | T/C (endpoint: mean survival time, dose: 50.0 mg/kg/injection, schedule: Q01DX009 (ip), vehicle: saline): 101 % of control | T/C [4]: 97 % of control

COC1c2c(nc3ccccc3c2C(N)=O)-c2ccccc2C1(C)C (stereo not drawn)
T/C (endpoint: mean survival time, dose: 100.0 mg/kg/injection, schedule: Q04DX003 (ip), vehicle: saline): 89 % of control | T/C (endpoint: mean survival time, dose: 200.0 mg/kg/injection, schedule: Q04DX003 (ip), vehicle: saline): 103 % of control | T/C (endpoint: mean survival time, dose: 400.0 mg/kg/injection, schedule: Q04DX003 (ip), vehicle: saline): 94 % of control

COc1ccc2c(ccc3nc(C)[nH]c(=O)c32)c1
T/C [5]: 91 % of control

O=C1NC(c2ccc(F)cc2)OC1C(=O)c1ccccc1 (stereo not drawn)
T/C [6]: 104 % of control | T/C [7]: 110 % of control | T/C [8]: 104 % of control

CC(=O)NC(CO)(CO)CO
T/C [6]: 94 % of control | T/C [4]: 94 % of control | T/C [7]: 102 % of control | T/C (endpoint: mean survival time, dose: 200.0 mg/kg/injection, schedule: Q01DX009 (ip), vehicle: saline): 89 % of control | T/C [8]: 98 % of control | T/C (endpoint: mean survival time, dose: 400.0 mg/kg/injection, schedule: Q01DX009 (ip), vehicle: saline): 90 % of control

Cc1ccc(NC(=O)CS)cc1
T/C [9]: 100 % of control | T/C [10]: 93 % of control

CC(C)(C)NS(=O)(=O)/C=C/c1ccccc1
T/C (endpoint: mean survival time, dose: 50.0 mg/kg/injection, schedule: Q01DX009 (ip), vehicle: acetone): 95 % of control | T/C (endpoint: mean survival time, dose: 100.0 mg/kg/injection, schedule: Q01DX001 (ip), vehicle: acetone): 101 % of control | T/C (endpoint: mean survival time, dose: 100.0 mg/kg/injection, schedule: Q01DX009 (ip), vehicle: acetone): 93 % of control | T/C (endpoint: mean survival time, dose: 200.0 mg/kg/injection, schedule: Q01DX001 (ip), vehicle: acetone): 102 % of control | T/C (endpoint: mean survival time, dose: 200.0 mg/kg/injection, schedule: Q01DX009 (ip), vehicle: acetone): 92 % of control | T/C (endpoint: mean survival time, dose: 400.0 mg/kg/injection, schedule: Q01DX001 (ip), vehicle: acetone): 96 % of control

O=[N+]([O-])c1ccc(N=C=C(c2ccccc2)c2ccccc2)cc1
T/C (endpoint: mean survival time, dose: 100.0 mg/kg/injection, schedule: Q04DX002 (ip), vehicle: DMSO): 112 % of control | T/C (endpoint: mean survival time, dose: 200.0 mg/kg/injection, schedule: Q04DX002 (ip), vehicle: DMSO): 91 % of control | T/C (endpoint: mean survival time, dose: 400.0 mg/kg/injection, schedule: Q04DX002 (ip), vehicle: DMSO): 94 % of control

C=CC1(C)CCC(=O)N1 (stereo not drawn)
T/C (endpoint: mean survival time, dose: 75.0 mg/kg/injection, schedule: Q04DX003 (ip), vehicle: other): 104 % of control | T/C (endpoint: mean survival time, dose: 150.0 mg/kg/injection, schedule: Q04DX003 (ip), vehicle: other): 98 % of control | T/C (endpoint: mean survival time, dose: 300.0 mg/kg/injection, schedule: Q04DX003 (ip), vehicle: other): 98 % of control

C=CCCCCCCCCCC(CCCCCC)C(=O)O (stereo not drawn)
T/C (endpoint: mean survival time, dose: 100.0 mg/kg/injection, schedule: Q01DX001 (ip), vehicle: saline with Tween-80): 101 % of control | T/C (endpoint: mean survival time, dose: 200.0 mg/kg/injection, schedule: Q01DX001 (ip), vehicle: saline with Tween-80): 111 % of control | T/C (endpoint: mean survival time, dose: 400.0 mg/kg/injection, schedule: Q01DX001 (ip), vehicle: saline with Tween-80): 92 % of control

Cc1cccc(NC(=O)Nc2ccccc2F)n1
T/C [5]: 96 % of control | T/C [1]: 96 % of control | T/C (endpoint: mean survival time, dose: 100.0 mg/kg/injection, schedule: Q04DX002 (ip), vehicle: Klucel (hydroxypropylcellulose) (HPC)): 94 % of control and 87 % of control | T/C [11]: 99 % of control | T/C [12]: 91 % of control | T/C [2]: 96 % of control and 88 % of control | T/C (endpoint: mean survival time, dose: 200.0 mg/kg/injection, schedule: Q04DX002 (ip), vehicle: Klucel (hydroxypropylcellulose) (HPC)): 96 % of control and 91 % of control | T/C [13]: 111 % of control | T/C [3]: 105 % of control and 88 % of control | T/C (endpoint: mean survival time, dose: 400.0 mg/kg/injection, schedule: Q04DX002 (ip), vehicle: Klucel (hydroxypropylcellulose) (HPC)): 87 % of control and 91 % of control | T/C [14]: 97 % of control

COC(=O)CCSC(c1ccccc1)(c1ccccc1)c1ccccc1
T/C [1]: 104 % of control | T/C [11]: 96 % of control | T/C [2]: 94 % of control | T/C [13]: 93 % of control | T/C [3]: 100 % of control | T/C [14]: 93 % of control

CCCCCCCCCCC(S(=O)(=O)CC)S(=O)(=O)CC
T/C [5]: 97 % of control | T/C [12]: 94 % of control

C/C(=N\O)C1(C)CC=CCC1CO (stereo not drawn)
T/C [9]: 101 % of control | T/C [10]: 101 % of control | T/C (endpoint: mean survival time, dose: 400.0 mg/kg/injection, schedule: Q04DX003 (ip), vehicle: saline with Tween-80): 96 % of control
